In patent publication EP4631498A1, “EYE DROP-TYPE PHARMACEUTICAL COMPOSITION CONTAINING ENVOGLIFLOZIN” (Daewoong Therapeutics Inc., priority 2022, dated 2024):
Values after ≈ are worked out from the molar mass of the structure shown. Where two headings read alike, the source gives them in different places.

Assay: Saturation solubility of enavogliflozin in aqueous excipient solutions (HPLC)
Type: physicochemical
Conditions: for solubility at 12 h: aqueous excipient solution (excipient in purified water), thermodynamic from solid
Description: According to Table 1 below, enavogliflozin in the amount corresponding to each standard solution and 70 mL of methanol were placed in a volumetric flask and then completely dissolved under ultrasonic agitation. Methanol was added thereto to adjust the total volume to 100 mL. The resulting solution was taken and filtered through a 0.45 µm RC (Regenerated Cellulose) membrane filter. The first 2 mL was discarded and then the filtrate was used as a standard solution.
Each excipient was dissolved in 5 mL of purified water at the maximum concentration recommended by the FDA (Table 2) and then enavogliflozin was added thereto until it was no longer dissolved, followed by stirring for approximately 12 hours. After confirming no dissolution after 12 hours, each sample was centrifuged at 4000 rpm for 30 minutes and the clear supernatant (1 mL) was taken and then diluted with methanol. The resulting solution was filtered through a 0.45 µm RC membrane filter. The first 2 mL was discarded and then the filtrate was used as a test solution.
The peak areas of the standard and test solutions were analyzed under the following HPLC conditions. • Detector: UV spectrophotometer (wavelength: 225 nm) • Column: Capcellpak C18 (4.6 x 250 mm, 5 µm) • Column temperature: about 35°C • Sample temperature: about 25°C • Mobile phase: Buffer solution : acetonitrile = 25 : 75 (v/v) (Buffer solution: prepared by dissolving 100 µl of trifluoroacetic acid in 1000 mL of water) • Flow rate: 1.0 mL/min • Injection volume: 10 µL • Analysis time: about 20 minutes
Polyoxyl 40 stearate (Myrj™ S40) was dissolved in 5 mL of purified water at the concentration of 7.0 w/v% and then enavogliflozin was added thereto until it was no longer dissolved, followed by stirring for approximately 12 hours. Thereafter, the degree of solubilization was evaluated in the same manner as in Example 1.

- Solubility for unit concentration (Aqualon™ CMC 0.50 %w/v): 0.59 mg/%
- Solubility for unit concentration (Cavasol™ W8 1.50 %w/v): 0.72 mg/%
- Solubility for unit concentration (EtOH 0.50 %w/v): 0.51 mg/%
- Solubility for unit concentration (Glycerol 2.25 %w/v): 0.11 mg/%
- Solubility for unit concentration (HPMC 606 0.60 %w/v): 0.56 mg/%
- Solubility for unit concentration (Kollidon™ K30 15.00 %w/v): 0.24 mg/%
- Solubility for unit concentration (Kollidon™ K90 1.50 %w/v): 0.41 mg/%
- Solubility for unit concentration (Kolliphor™ EL 5.00 %w/v): 3.37 mg/%
- Solubility for unit concentration (Kolliphor™ HS 15 0.25 %w/v): 4.09 mg/%
- Solubility for unit concentration (Kolliphor™ RH 40 1.00 %w/v): 3.64 mg/%
- Solubility for unit concentration (Kollisolv™ PG 1.50 %w/v): 0.18 mg/%
- Solubility for unit concentration (PEG 400 4.00 %w/v): 0.08 mg/%
- Solubility for unit concentration (TPGS 0.50 %w/v): 4.63 mg/%
- Solubility for unit concentration (Tween™ 20 0.05 %w/v): 7.21 mg/%
- Solubility for unit concentration (Tween™ 80 4.00 %w/v): 3.95 mg/%
- solubility at 12 h (aqueous with cosolvent or surfactant or cyclodextrin, Aqualon™ CMC 0.50 %w/v in purified water, read-out: Saturation solubility): 300 µg/mL (≈ 671 µM)
- solubility at 12 h (aqueous with cosolvent or surfactant or cyclodextrin, Cavasol™ W8 1.50 %w/v in purified water, read-out: Saturation solubility): 1090 µg/mL (≈ 2440 µM)
- solubility at 12 h (aqueous with cosolvent or surfactant or cyclodextrin, HPMC 606 0.60 %w/v in purified water, read-out: Saturation solubility): 330 µg/mL (≈ 738 µM)
- solubility at 12 h (aqueous with cosolvent or surfactant or cyclodextrin, Kollidon™ K30 15.00 %w/v in purified water, read-out: Saturation solubility): 3600 µg/mL (≈ 8060 µM)
- solubility at 12 h (aqueous with cosolvent or surfactant or cyclodextrin, Kollidon™ K90 1.50 %w/v in purified water, read-out: Saturation solubility): 620 µg/mL (≈ 1390 µM)
- solubility at 12 h (aqueous with cosolvent or surfactant or cyclodextrin, Kolliphor™ EL 5.00 %w/v in purified water, read-out: Saturation solubility): 16800 µg/mL (≈ 37700 µM)
- solubility at 12 h (aqueous with cosolvent or surfactant or cyclodextrin, Kolliphor™ EL 5.0 w/v% in purified water, read-out: Saturation solubility of enavogliflozin): 16800 µg/mL (≈ 37700 µM)
- solubility at 12 h (aqueous with cosolvent or surfactant or cyclodextrin, Kolliphor™ HS 15 0.25 %w/v in purified water, read-out: Saturation solubility): 1020 µg/mL (≈ 2280 µM)
- solubility at 12 h (aqueous with cosolvent or surfactant or cyclodextrin, Kolliphor™ RH 40 1.00 %w/v in purified water, read-out: Saturation solubility): 3640 µg/mL (≈ 8140 µM)
- solubility at 12 h (aqueous with cosolvent or surfactant or cyclodextrin, Polyoxyl 40 stearate 7.0 w/v% in purified water, read-out: Saturation solubility of enavogliflozin): 32000 µg/mL (≈ 71600 µM)
- solubility at 12 h (aqueous with cosolvent or surfactant or cyclodextrin, TPGS 0.50 %w/v in purified water, read-out: Saturation solubility): 2310 µg/mL (≈ 5170 µM)
- solubility at 12 h (aqueous with cosolvent or surfactant or cyclodextrin, Tween™ 20 0.05 %w/v in purified water, read-out: Saturation solubility): 360 µg/mL (≈ 806 µM)
- solubility at 12 h (aqueous with cosolvent or surfactant or cyclodextrin, Tween™ 80 4.00 %w/v in purified water, read-out: Saturation solubility): 15800 µg/mL (≈ 35400 µM)
- solubility at 12 h (water, EtOH 0.50 %w/v in purified water, read-out: Saturation solubility): 260 µg/mL (≈ 582 µM)
- solubility at 12 h (water, Glycerol 2.25 %w/v in purified water, read-out: Saturation solubility): 240 µg/mL (≈ 537 µM)
- solubility at 12 h (water, Kollisolv™ PG 1.50 %w/v in purified water, read-out: Saturation solubility): 270 µg/mL (≈ 604 µM)
- solubility at 12 h (water, PEG 400 4.00 %w/v in purified water, read-out: Saturation solubility): 330 µg/mL (≈ 738 µM)
Structure (SMILES): OC[C@H]1O[C@@H](c2cc(Cc3ccc(C4CC4)cc3)c(Cl)c3c2CCO3)[C@H](O)[C@@H](O)[C@@H]1O [enavogliflozin, Enavogliflozin]
